Reference: PubChem BioAssay (NCI)
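Five concentrations, 48 hours, 96-well plates. GI50 = concentration required for 50% inhibition of growth. At the TGI there is no net growth.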

What was measured:
Test in all cases: inhibition of tumour cell growth, NCI panel, 48 h
OVCAR-4 ovarian = test system: OVCAR-4 ovarian
SN12C renal = test system: SN12C renal
MDA-MB-435 = test system: MDA-MB-435
UO-31 renal = test system: UO-31 renal
OVCAR-8 ovarian = test system: OVCAR-8 ovarian
HCC-2998 colon = test system: HCC-2998 colon
UACC-257 melanoma = test system: UACC-257 melanoma
NCI-H522 lung = test system: NCI-H522 lung
OVCAR-5 ovarian = test system: OVCAR-5 ovarian
HCT-116 colon = test system: HCT-116 colon
HOP-62 NSCLC = test system: HOP-62 NSCLC
MCF7 breast = test system: MCF7 breast
CAKI-1 renal = test system: CAKI-1 renal
ACHN renal = test system: ACHN renal
SNB-19 CNS = test system: SNB-19 CNS
RPMI-8226 leukemia = test system: RPMI-8226 leukemia
NCI-H460 lung = test system: NCI-H460 lung
K-562 leukemia = test system: K-562 leukemia
HOP-92 NSCLC = test system: HOP-92 NSCLC
PC-3 prostate = test system: PC-3 prostate
RXF 393 renal = test system: RXF 393 renal
NCI-H23 lung = test system: NCI-H23 lung
HCT-15 colon = test system: HCT-15 colon
OVCAR-3 ovarian = test system: OVCAR-3 ovarian
TK-10 renal = test system: TK-10 renal
786-0 renal = test system: 786-0 renal
KM12 colon = test system: KM12 colon
BT-549 breast = test system: BT-549 breast
SF-539 CNS = test system: SF-539 CNS
T-47D breast = test system: T-47D breast
A498 renal = test system: A498 renal
HS 578T breast = test system: HS 578T breast
NCI/ADR-RES ovarian = test system: NCI/ADR-RES ovarian
MDA-MB-231 breast = test system: MDA-MB-231 breast
HT29 colon = test system: HT29 colon
SF-295 CNS = test system: SF-295 CNS
SK-MEL-2 melanoma = test system: SK-MEL-2 melanoma
U251 CNS = test system: U251 CNS
SNB-75 CNS = test system: SNB-75 CNS
UACC-62 melanoma = test system: UACC-62 melanoma
SW-620 colon = test system: SW-620 colon
EKVX NSCLC = test system: EKVX NSCLC
SK-OV-3 ovarian = test system: SK-OV-3 ovarian
M14 melanoma = test system: M14 melanoma
SK-MEL-5 melanoma = test system: SK-MEL-5 melanoma
SF-268 CNS = test system: SF-268 CNS
IGROV1 ovarian = test system: IGROV1 ovarian
LOX IMVI melanoma = test system: LOX IMVI melanoma
SK-MEL-28 melanoma = test system: SK-MEL-28 melanoma
A549 NSCLC = test system: A549 NSCLC
CCRF-CEM leukemia = test system: CCRF-CEM leukemia
DU-145 prostate = test system: DU-145 prostate
MALME-3M melanoma = test system: MALME-3M melanoma
COLO 205 colon = test system: COLO 205 colon
HL-60(TB) leukemia = test system: HL-60(TB) leukemia

SMILES: Cc1cn2c(=O)n(c1=O)Cc1ccccc1C2
- GI50 (OVCAR-4 ovarian): > 100 µM
- TGI (OVCAR-4 ovarian): > 100 µM
- GI50 (SN12C renal): > 100 µM
- TGI (SN12C renal): > 100 µM
- GI50 (MDA-MB-435): > 100 µM
- TGI (MDA-MB-435): > 100 µM
- GI50 (UO-31 renal): 32.3 µM
- TGI (UO-31 renal): > 100 µM
- GI50 (OVCAR-8 ovarian): 46.6 µM
- TGI (OVCAR-8 ovarian): > 100 µM
- GI50 (HCC-2998 colon): > 100 µM
- TGI (HCC-2998 colon): > 100 µM
- GI50 (UACC-257 melanoma): > 100 µM
- TGI (UACC-257 melanoma): > 100 µM
- GI50 (NCI-H522 lung): 43.4 µM
- TGI (NCI-H522 lung): > 100 µM
- GI50 (OVCAR-5 ovarian): > 100 µM
- TGI (OVCAR-5 ovarian): > 100 µM
- GI50 (HCT-116 colon): 27.3 µM
- TGI (HCT-116 colon): > 100 µM
- GI50 (HOP-62 NSCLC): > 100 µM
- TGI (HOP-62 NSCLC): > 100 µM
- GI50 (MCF7 breast): 35.1 µM
- TGI (MCF7 breast): > 100 µM
- GI50 (CAKI-1 renal): > 100 µM
- TGI (CAKI-1 renal): > 100 µM
- GI50 (ACHN renal): > 100 µM
- TGI (ACHN renal): > 100 µM
- GI50 (SNB-19 CNS): > 100 µM
- TGI (SNB-19 CNS): > 100 µM
- GI50 (RPMI-8226 leukemia): 28.3 µM
- TGI (RPMI-8226 leukemia): > 100 µM
- GI50 (NCI-H460 lung): > 100 µM
- TGI (NCI-H460 lung): > 100 µM
- GI50 (K-562 leukemia): > 100 µM
- TGI (K-562 leukemia): > 100 µM
- GI50 (HOP-92 NSCLC): > 100 µM
- TGI (HOP-92 NSCLC): > 100 µM
- GI50 (PC-3 prostate): > 100 µM
- TGI (PC-3 prostate): > 100 µM
- GI50 (RXF 393 renal): 19.5 µM
- TGI (RXF 393 renal): > 100 µM
- GI50 (NCI-H23 lung): > 100 µM
- TGI (NCI-H23 lung): > 100 µM
- GI50 (HCT-15 colon): > 100 µM
- TGI (HCT-15 colon): > 100 µM
- GI50 (OVCAR-3 ovarian): > 100 µM
- TGI (OVCAR-3 ovarian): > 100 µM
- GI50 (TK-10 renal): > 100 µM
- TGI (TK-10 renal): > 100 µM
- GI50 (786-0 renal): 68.7 µM
- TGI (786-0 renal): > 100 µM
- GI50 (KM12 colon): > 100 µM
- TGI (KM12 colon): > 100 µM
- GI50 (BT-549 breast): 48.4 µM
- TGI (BT-549 breast): > 100 µM
- GI50 (SF-539 CNS): > 100 µM
- TGI (SF-539 CNS): > 100 µM
- GI50 (T-47D breast): 182 nM
- TGI (T-47D breast): 10.8 µM
- GI50 (A498 renal): 35.1 µM
- TGI (A498 renal): > 100 µM
- GI50 (HS 578T breast): 8.97 µM
- TGI (HS 578T breast): > 100 µM
- GI50 (NCI/ADR-RES ovarian): > 100 µM
- TGI (NCI/ADR-RES ovarian): > 100 µM
- GI50 (MDA-MB-231 breast): 5.84 µM
- TGI (MDA-MB-231 breast): > 100 µM
- GI50 (HT29 colon): > 100 µM
- TGI (HT29 colon): > 100 µM
- GI50 (SF-295 CNS): > 100 µM
- TGI (SF-295 CNS): > 100 µM
- GI50 (SK-MEL-2 melanoma): > 100 µM
- TGI (SK-MEL-2 melanoma): > 100 µM
- GI50 (U251 CNS): > 100 µM
- TGI (U251 CNS): > 100 µM
- GI50 (SNB-75 CNS): 85.9 µM
- TGI (SNB-75 CNS): > 100 µM
- GI50 (UACC-62 melanoma): 63.1 µM
- TGI (UACC-62 melanoma): > 100 µM
- GI50 (SW-620 colon): > 100 µM
- TGI (SW-620 colon): > 100 µM
- GI50 (EKVX NSCLC): > 100 µM
- TGI (EKVX NSCLC): > 100 µM
- GI50 (SK-OV-3 ovarian): 5.79 µM
- TGI (SK-OV-3 ovarian): > 100 µM
- GI50 (M14 melanoma): > 100 µM
- TGI (M14 melanoma): > 100 µM
- GI50 (SK-MEL-5 melanoma): 83.1 µM
- TGI (SK-MEL-5 melanoma): > 100 µM
- GI50 (SF-268 CNS): 38.6 µM
- TGI (SF-268 CNS): > 100 µM
- GI50 (IGROV1 ovarian): 41.7 µM
- TGI (IGROV1 ovarian): > 100 µM
- GI50 (LOX IMVI melanoma): 32 µM
- TGI (LOX IMVI melanoma): > 100 µM
- GI50 (SK-MEL-28 melanoma): > 100 µM
- TGI (SK-MEL-28 melanoma): > 100 µM
- GI50 (A549 NSCLC): > 100 µM
- TGI (A549 NSCLC): > 100 µM
- GI50 (CCRF-CEM leukemia): 50.6 µM
- TGI (CCRF-CEM leukemia): > 100 µM
- GI50 (DU-145 prostate): > 100 µM
- TGI (DU-145 prostate): > 100 µM
- GI50 (MALME-3M melanoma): > 100 µM
- TGI (MALME-3M melanoma): > 100 µM
- GI50 (COLO 205 colon): 1040 nM
- TGI (COLO 205 colon): 31.9 µM
- GI50 (HL-60(TB) leukemia): > 100 µM
- TGI (HL-60(TB) leukemia): > 100 µM
